Reference: patent publication US20240190883A1, “KRAS PROTEIN DEGRADERS, PHARMACEUTICAL COMPOSITIONS THEREOF, AND THEIR THERAPEUTIC APPLICATIONS” (BioTheryX, Inc., priority 2021, published 2024)

Tests used:
Format in all cases: cell-based
H358 (G12C) cells = experiment: Cell viability assay (CELLTITER-GLO), H358 cells; conditions: Homo sapiens, NCI-H358, 72 h, 3 days incubation, 2.5% fetal bovine serum, read-out: Inhibition of Cancerous Cells IC50 (μM) H358 (G12C)
Procedure: (§1) H358, H23, SW48, and AsPC-1 cells were cultured in RPMI 1640 media supplemented with 10% fetal bovine serum, streptomycin, and penicillin. Lovo and SW480 cells were cultured in DMEM media supplemented with 10% fetal bovine serum, streptomycin, and penicillin. The cell lines were plated in their respective medium supplemented with 2.5% fetal bovine serum, streptomycin, and penicillin. All cell lines were plated in white walled 96-well plates at 2,000 cells/well or 384-well plates at 500 cells/well, except Lovo, which were plated at 4,000 or 1,000 cells/well, respectively. The cells were incubated in DMSO (control) or a compound for 3 days at 37° C. under 5% C02. A CELLTITER-GLO® reagent (100 μL) was then added to each well. After a 10 min incubation with shaking, luminescence was measured using an ENVISION® multimode plate reader. IC50 values are summarized in Table 1 and percentages of inhibition are summarized in Table 2, where compound T1 is 2-(4-(2-methyl-3,5-diphenylpyrazolo[1,5-a]pyrimidin-7-yl)piperazin-1-yl)ethan-1-ol.

SW480 (G12V) cells = experiment: Cell viability assay (CELLTITER-GLO), SW480 cells; conditions: Homo sapiens, 72 h, 3 days incubation, 2.5% fetal bovine serum, read-out: Inhibition of Cancerous Cells IC50 (μM) SW480 (G12V)
Procedure: as §1

SW48 (wt) cells = experiment: Cell viability assay (CELLTITER-GLO), SW48 cells; conditions: Homo sapiens, 72 h, 3 days incubation, 2.5% fetal bovine serum, read-out: Inhibition of Cancerous Cells IC50 (μM) SW48 (wt)
Procedure: as §1

Lovo (G13D) cells = experiment: Cell viability assay (CELLTITER-GLO), Lovo cells; conditions: Homo sapiens, 72 h, 3 days incubation, 2.5% fetal bovine serum, read-out: Inhibition of Cancerous Cells IC50 (μM) Lovo (G13D)
Procedure: as §1

AsPC-1 (G12D) cells = experiment: Cell viability assay (CELLTITER-GLO), AsPC-1 cells; conditions: Homo sapiens, ASPC1, 72 h, 3 days incubation, 2.5% fetal bovine serum, read-out: Inhibition of Cancerous Cells IC50 (μM) AsPC-1 (G12D)
Procedure: as §1

SMILES	IC50 (H358 (G12C) cells) [µM]	IC50 (SW480 (G12V) cells) [µM]	IC50 (SW48 (wt) cells) [µM]	IC50 (Lovo (G13D) cells) [µM]	IC50 (AsPC-1 (G12D) cells) [µM]
Cc1nn2c(N3CCN(CCO)CC3)cc(-c3cccc(CCCN4CCN(C(=O)CNc5ccc(C6CCC(=O)NC6=O)cc5)CC4)c3)nc2c1-c1ccccc1 (stereo not shown) [Compound B1, 3-(4-((2-(4-(3-(3-(7-(4-(2-Hydroxyethyl)piperazin-1-yl)-2-methyl-3-phenyl-pyrazolo[1,5-a]pyrimidin-5-yl)phenyl)propyl)piperazin-1-yl)-2-oxoethyl)amino)phenyl)-piperidine-2,6-dione]	0.94	1.2	1.1	0.74	–
Cc1nn2c(N3CCN(CCO)CC3)cc(-c3cccc(CCCCCN4CCN(C(=O)CNc5ccc(C6CCC(=O)NC6=O)cc5)CC4)c3)nc2c1-c1ccccc1 (stereo not shown) [Compound B2, 3-(4-((2-(4-(5-(3-(7-(4-(2-hydroxyethyl)piperazin-1-yl)-2-methyl-3-phenylpyrazolo[1,5-a]pyrimidin-5-yl)phenyl)pentyl)piperazin-1-yl)-2-oxoethyl)amino)phenyl)piperidine-2,6-dione]	0.71	0.39	0.49	0.4	–
Cc1nn2c(N3CCN(CCO)CC3)cc(-c3cccc(CCCN4CCN(C(=O)CNc5cccc(C6CCC(=O)NC6=O)c5)CC4)c3)nc2c1-c1ccccc1 (stereo not shown) [Compound B4, 3-(3-((2-(4-(3-(3-(7-(4-(2-Hydroxyethyl)piperazin-1-yl)-2-methyl-3-phenyl-pyrazolo[1,5-a]pyrimidin-5-yl)phenyl)propyl)piperazin-1-yl)-2-oxoethyl)amino)phenyl)-piperidine-2,6-dione]	1.1	1.3	1.4	1.1	–
Cc1nn2c(N3CCN(CCO)CC3)cc(-c3ccccc3)nc2c1-c1cccc(CCCCCN2CCN(C(=O)COc3ccc(N4CCC(=O)NC4=O)cc3)CC2)c1 [Compound C7, 1-(4-(2-(4-(5-(3-(7-(4-(2-hydroxyethyl)piperazin-1-yl)-2-methyl-5-phenyl-pyrazolo[1,5-a]pyrimidin-3-yl)phenyl)pentyl)piperazin-1-yl)-2-oxoethoxy)phenyl)dihydro-pyrimidine-2,4(1H,3H)-dione]	1.1	0.45	0.7	0.73	0.91
Cc1nn2c(N3CCN(CCO)CC3)cc(-c3ccccc3)nc2c1-c1cccc(CCCCCCCN2CCN(C(=O)COc3ccc(N4CCC(=O)NC4=O)cc3)CC2)c1 [Compound C8, 1-(4-(2-(4-(7-(3-(7-(4-(2-Hydroxyethyl)piperazin-1-yl)-2-methyl-5-phenyl-pyrazolo[1,5-a]pyrimidin-3-yl)phenyl)heptyl)piperazin-1-yl)-2-oxoethoxy)phenyl)dihydro-pyrimidine-2,4(1H,3H)-dione]	1.1	0.42	0.66	0.71	1.1
Cc1nn2c(N3CCN(CCO)CC3)cc(-c3ccccc3)nc2c1-c1cccc(CCCCCCCCCN2CCN(C(=O)COc3ccc(N4CCC(=O)NC4=O)cc3)CC2)c1 [Compound C9, 1-(4-(2-(4-(9-(3-(7-(4-(2-hydroxyethyl)piperazin-1-yl)-2-methyl-5-phenyl-pyrazolo[1,5-a]pyrimidin-3-yl)phenyl)nonyl)piperazin-1-yl)-2-oxoethoxy)phenyl)dihydro-pyrimidine-2,4(1H,3H)-dione]	1.1	0.42	0.48	0.47	0.96
Cc1nn2c(N3CCN(CCO)CC3)cc(-c3ccccc3)nc2c1-c1cccc(CCCCCCCN2CCN(C(=O)COc3cccc(N4CCC(=O)NC4=O)c3)CC2)c1 [Compound C11, 1-(3-(2-(4-(7-(3-(7-(4-(2-Hydroxyethyl)piperazin-1-yl)-2-methyl-5-phenyl-pyrazolo[1,5-a]pyrindin-3-yl)phenyl)heptyl)piperazin-1-yl)-2-oxoethoxy)phenyl)dihydro-pyrimidine-2,4(1H,3H)-dione]	1.2	0.53	1.1	0.89	1.2
Cc1nn2c(N3CCN(CCO)CC3)cc(-c3ccccc3)nc2c1-c1cccc(CCCCCCCCCN2CCN(C(=O)COc3cccc(N4CCC(=O)NC4=O)c3)CC2)c1 [Compound C12, 1-(3-(2-(4-(9-(3-(7-(4-(2-hydroxyethyl)piperazin-1-yl)-2-methyl-5-phenyl-pyrazolo[1,5-a]pyrimidin-3-yl)phenyl)nonyl)piperazin-1-yl)-2-oxoethoxy)phenyl)dihydro-pyrimidine-2,4(1H,3H)-dione]	1.4	0.45	0.73	0.63	1

The next lines start with the values.

IC50 (H358 (G12C) cells) [µM]	IC50 (SW480 (G12V) cells) [µM]	IC50 (SW48 (wt) cells) [µM]	IC50 (Lovo (G13D) cells) [µM]	IC50 (AsPC-1 (G12D) cells) [µM]	SMILES
0.82	0.45	0.52	0.32	–	Cc1nn2c(N3CCN(CCO)CC3)cc(-c3cccc(CCCCCN4CCN(C(=O)CNc5ccc6c(C7CCC(=O)NC7=O)nn(C)c6c5)CC4)c3)nc2c1-c1ccccc1 (stereo not shown) [Compound D2, 3-(6-((2-(4-(5-(3-(7-(4-(2-hydroxyethyl)piperazin-1-yl)-2-methyl-3-phenylpyrazolo[1,5-a]pyrimidin-5-yl)phenyl)pentyl)piperazin-1-yl)-2-oxoethyl)amino)-1-methyl-1H-indazol-3-yl)piperidine-2,6-dione]
0.75	0.84	0.94	0.52	–	Cc1nn2c(N3CCN(CCO)CC3)cc(-c3cccc(CCCN4CCN(C(=O)CNc5cccc6c(C7CCC(=O)NC7=O)nn(C)c56)CC4)c3)nc2c1-c1ccccc1 (stereo not shown) [Compound D4, 3-(7-((2-(4-(3-(3-(7-(4-(2-Hydroxyethyl)piperazin-1-yl)-2-methyl-3-phenyl-pyrazolo[1,5-a]pyrimidin-5-yl)phenyl)propyl)piperazin-1-yl)-2-oxoethyl)amino)-1-methyl-1H-indazol-3-yl)piperidine-2,6-dione]
3.3	0.86	1.2	1.3	1.3	Cc1nn2c(N3CCN(CCO)CC3)cc(-c3ccccc3)nc2c1-c1cccc(CCCN2CCN(C(=O)CNc3ccc4c(C5CCC(=O)NC5=O)nn(C)c4c3)CC2)c1 (stereo not shown) [Compound D7, 3-(6-((2-(4-(3-(3-(7-(4-(2-Hydroxyethyl)piperazin-1-yl)-2-methyl-5-phenyl-pyrazolo[1,5-a]pyrimidin-3-yl)phenyl)propyl)piperazin-1-yl)-2-oxoethyl)amino)-1-methyl-1H-indazol-3-yl)piperidine-2,6-dione]
1.2	0.4	0.72	0.63	1.3	Cc1nn2c(N3CCN(CCO)CC3)cc(-c3ccccc3)nc2c1-c1cccc(CCCCCN2CCN(C(=O)CNc3ccc4c(C5CCC(=O)NC5=O)nn(C)c4c3)CC2)c1 (stereo not shown) [Compound D8, 3-(6-((2-(4-(5-(3-(7-(4-(2-Hydroxyethyl)piperazin-1-yl)-2-methyl-5-phenyl-pyrazolo[1,5-a]pyrimidin-3-yl)phenyl)pentyl)piperazin-1-yl)-2-oxoethyl)amino)-1-methyl-1H-indazol-3-yl)piperidine-2,6-dione]
